Assay results from the NIST ThermoML archive (doi:10.1021/je400622g).

Key:
[1] = Liquid; for mass density: 298.15 K, Vibrating tube method
[2] = refractive index (Na D-line) (dimensionless); conditions: 298.15 K; 101.33 kPa; Liquid; Standard Abbe refractometry
[3] = xn = mol fraction of the nth substance listed; conditions: 298.15 K, Liquid, Vibrating tube method

CCOC(C)=O [ethyl acetate]
Conditions	mass density [kg/m3]	refractive index
[1]	894.5	–
[2]	–	1.3698

Conditions	vapor or sublimation pressure [kPa]
[1], 417.02 K, Ebulliometric method (Recirculating still)	600

Conditions	Normal boiling temperature [°C]
[1], Ebulliometric method (Recirculating still)	77.04

CCOC(C)=O [ethyl acetate] + CCCO
[3]
Conditions	mass density [kg/m3]
x1 = 0.0442	804.5
x1 = 0.0911	809.6
x1 = 0.1433	815.2
x1 = 0.201	821.3
x1 = 0.2417	825.5
x1 = 0.2986	831.4
x1 = 0.3435	835.9
x1 = 0.4654	847.6
x1 = 0.5534	855.8
x1 = 0.6461	864.2
x1 = 0.6917	868.2
x1 = 0.7647	874.5
x1 = 0.8037	877.9
x1 = 0.8347	880.5
x1 = 0.8535	882.1
x1 = 0.9053	886.4
x1 = 0.9649	891.4
x1 = 1	894.5

COC(C)=O [methyl ethanoate]
Conditions	vapor or sublimation pressure [kPa]
[1], 393.01 K, Ebulliometric method (Recirculating still)	600

CCCO [propan-1-ol]
Conditions	mass density [kg/m3]
[1]	799.6

Conditions	vapor or sublimation pressure [kPa]
[1], 427.2 K, Ebulliometric method (Recirculating still)	600

CCCO [propan-1-ol] + CCCOC(C)=O
Conditions	mass density [kg/m3]
[3], x2 = 0	799.6

CCCO [propan-1-ol] + CCOC(C)=O
Conditions	mass density [kg/m3]
[3], x2 = 0	799.6

CCCOC(C)=O [propyl ethanoate]
Conditions	mass density [kg/m3]
[1]	882.4

Conditions	vapor or sublimation pressure [kPa]
[1], 446.02 K, Ebulliometric method (Recirculating still)	600

CCCOC(C)=O [propyl ethanoate] + CCCO
[3]
Conditions	mass density [kg/m3]
x1 = 0.0544	805.9
x1 = 0.0997	810.9
x1 = 0.1515	816.5
x1 = 0.1951	821
x1 = 0.2503	826.4
x1 = 0.3164	832.6
x1 = 0.3481	835.4
x1 = 0.4144	841.2
x1 = 0.4959	847.9
x1 = 0.5463	851.8
x1 = 0.6051	856.2
x1 = 0.6968	862.8
x1 = 0.7528	866.6
x1 = 0.7893	869
x1 = 0.7984	869.7
x1 = 0.8531	873.2
x1 = 0.8873	875.4
x1 = 0.9521	879.4
x1 = 1	882.4
